{
  "source": "patent US9463188B2",
  "about": "“Osteopontin production inhibitor containing dictyopyrone derivative or dihydrodictyopyrone derivative as active ingredient” (TOHOKU UNIVERSITY, priority 2013, dated 2016)",
  "key": {"[1]": {"tested_on": "human OPN promoter (pOPN1-luc) in A549/OPNluc cells", "assay": "Luciferase assay: luciferase expression under control of OPN promoter", "type": "cell-based", "description": "A reporter vector pOPN1-luc obtained by inserting a human OPN promoter sequence (−765 to 23) into the multiple cloning site of pGL-3 basic vector (Promega) expresses luciferase when transfected into animal cells. This pOPN1-luc was transfected into a human non-small cell lung cancer-derived cell line A549 together with pPUR (Clontech) that expresses a puromycin resistance gene (puromycin-N-acetyl-transferase gene), and cells that could grow in a puromycin-supplemented medium and expressed luciferase were selected. The selected cells were named A549/OPNluc cells and used for observation of luciferase expression inhibitory effect under control of OPN promoter, as described later.\nA test compound was added to a culture liquid containing A549/OPNluc cells to observe its influence on the amount of luciferase expressed in the cells. Here, it can be considered that when the test compound has cytotoxity or cell growth-suppressing effect, the total expression level of luciferase is reduced due to a reduction in the number of living cells that depends on the concentration of the test compound, and therefore the luciferase expression inhibitory effect of the test compound under control of OPN promoter cannot be properly evaluated. For this reason, WST assay for quantification of cell proliferation ability or cell viability by colorimetric measurement was first performed to determine IC50 (concentration for 50% inhibition of cell growth) of the test compound for cell growth. Then, luciferase activity measurement was performed to determine EC50 (concentration for 50% inhibition of luciferase expression) of the test compound for luciferase expression under control of OPN promoter.\nThe same steps as in the above-described WST assay were performed in which only DMSO (control) or the diluted test compound (sample) solution was added in an amount of 0.5 μL to each well containing the cell suspension to achieve 200-fold dilution, and the solution in each well was mixed with a vortex mixer, and the 96-well plate was incubated in a CO2 incubator (at 37° C. and 5% CO2) for 48±4 hours.\nA luciferase reagent was prepared by dissolving Luciferase Assay Substrate (hereinafter, referred to as “LAS”) supplied in Luciferase Assay Systems (Promega: Cat# E1500) with Luciferase Assay Buffer (LAB). 5× Cell Culture Lysis Reagent (hereinafter, referred to as “CCLR”) was diluted with water 5-fold to prepare 1×CCLR.\nAfter the incubation for 48±4 hours, the medium in each well was completely removed, and 50 μL of 1×CCLR was dispensed into each well. The 96-well plate was allowed to stand at room temperature for 30 minutes, and then 1×CCLR in each well was used as an assay sample. The luciferase reagent of 100 μL was placed in a tube for chemiluminescence measurement, and 20 μL of the assay sample was added to the tube and mixed with the luciferase reagent to measure chemiluminescence (Relative Luminescence Intensity: RLU) using Tuner Design Luminometer 20/20 (Promega).\nThe RLU values of the control wells and the RLU values of the sample wells at each concentration were input into an Excel file, and the percentages of RLU values of the sample wells at each concentration with respect to the average of RLU values of the control wells were determined. From these values, a fitted curve was determined by the method of least squares to calculate EC50."}, "[2]": {"tested_on": "OPN production by human non-small cell lung cancer-derived cell line A549", "assay": "OPN production by A549 cells (Human Osteopontin Immunoassay, per mg protein)", "type": "cell-based", "settings": "2-day culture", "experimental": "The confirmation test was performed in the following manner. The compound 3 wad added to a culture liquid containing cells of a human non-small cell lung cancer-derived cell line A549 or a human liver cancer-derived cell line HepG2, and the amount of OPN in culture supernatant after 2-day culture was measured using Human Osteopontin Immunoassay kit (R&D systems) and compared with the OPN amount of a compound 3-free group (control group).\nThe compound 3 has also cell growth inhibitory effect. Therefore, in order to properly evaluate the OPN production-suppressing effect of the compound 3, 1×CCLR used in luciferase assay was added to cells remaining in each well after removal of culture supernatant to prepare a cell lysate, and the amount of protein in the cell lysate was measured using BCA Protein Assay Kit (Thermo Scientific). The influence of addition of the compound 3 on the amount of OPN production was evaluated by comparison of the amount of OPN per milligram of protein.\nFirst, A549 cells or HepG2 cells were suspended in DMEM medium containing 10% FCS and 1% P/S at 4×10^4 cells/mL to obtain a cell suspension, and 500 μL of the cell suspension was dispensed into each well of a 24-well plate. In order to perform the test in triplicate, 3 wells were prepared for a control group and 3 wells were prepared for each test compound-treated group at each concentration. […]"}},
  "data": [
    {"smiles": "CCCCCCCCCCCC(=O)[C@H]1C(=O)O[C@@H](C)C[C@@H]1C", "note": "[Chemical formula 3]", "values": [
      {"measurement": "EC50 value relative to respective IC50 value", "setting": "[1]; EC50 luciferase assay vs IC50 WST assay", "result": "½"},
      {"measurement": "EC50", "setting": "[1]; Homo sapiens, 48±4 hours, read-out: EC50 (concentration for 50% inhibition of luciferase expression under control of OPN promoter)", "result": 15.9, "unit": "µM"},
      {"measurement": "suppression of OPN production vs control group", "setting": "[2]; 30 μmol/L, significance level less than 5%", "result": "significantly suppressed"},
      {"measurement": "suppression of OPN production vs control group", "setting": "[2]; 60 μmol/L, significance level less than 1%", "result": "significantly suppressed"}
    ]}
  ]
}
